The source of these data is patent US20250214976A1, “GPR35 MODULATORS AND USES THEREOF” (Crossignal Therapeutics, Inc., priority 2022, published 2025).

Broadly, the IC50 is the concentration at which inhibition is half-maximal.

The test addresses T1, human GPR35 (Homo sapiens, UniProt Q9HC97).
T1 construct: expressed in transfected cells; host or cells: HEK293
The test can be described thus: Luciferase Reporter Assay (YAP responsive element) in HEK293 cells stably transfected with human GPR35. The test is classed as cell-based. To be noted: overnight incubation. The protocol: HEK293 cells stably transfected with human GPR35 were maintained in Dulbecco's Modified Eagle Medium (DMEM) supplemented with 10% FBS and 300 μg/mL Zeocin and 200 μg/mL Hygromycin at 37° C., 10% CO2. On Day 1, cells were plated in poly-D-lysine coated 96-well tissue culture plate in regular growth medium (DMEM/10% FBS/300 μg/mL Zeocin/200 μg/mL Hygromycin. On the next day, luciferase reporter plasmid DNA with YAP responsive element was transfected into cells using lipofectamine 2000 (Invitrogen) following manufacture's protocol. After transfection for 6 hr., cells were treated with testing compounds in fasting DMEM medium (phenol red free, FBS free) at varying compound concentrations ranging from 10 μM to […] in a 3-fold serial diluted fashion. After an overnight incubation, the luciferase activities were measured with SteadyLite Plus Kit (PerkinElmer) according to manufacturer's protocol. IC50 was determined by fitting the dose-response data to a four-parameter logistic curve using GraphPad Prism.
The symbol “+” indicates IC50 is greater than […]. “++” indicates IC50>100 nM but ≤[…]. “+++” indicates IC50≤100 nM.

T1 sequence (Q9HC97 whole entry): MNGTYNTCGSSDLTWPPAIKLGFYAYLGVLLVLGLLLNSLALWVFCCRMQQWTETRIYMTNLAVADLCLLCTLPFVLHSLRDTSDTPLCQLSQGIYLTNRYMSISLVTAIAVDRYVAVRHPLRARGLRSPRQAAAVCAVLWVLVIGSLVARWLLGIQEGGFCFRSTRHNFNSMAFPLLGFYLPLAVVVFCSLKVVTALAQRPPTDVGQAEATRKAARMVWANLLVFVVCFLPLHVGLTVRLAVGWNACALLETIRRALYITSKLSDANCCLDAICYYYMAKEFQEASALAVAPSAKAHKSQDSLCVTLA

Take `O=C(Nc1ccc(N2CCC[C@@H]2C(F)(F)F)c(F)c1)c1coc2cc(-c3nnn[nH]3)c(F)cc12` [Compound 1-33, (R)-5-fluoro-N-(3-fluoro-4-(2-(trifluoromethyl)pyrrolidin-1-yl)phenyl)-6-(1H-tetrazol-5-yl)benzofuran-3-carboxamide]: the IC50 lay in the range of 100 to 1000 nM.

In turn, `O=C(Nc1ccc(N2CCC(F)(F)C2)c(F)c1)c1coc2cc(-c3nnn[nH]3)c(F)cc12` [Compound 1-34, N-(4-(3,3-difluoropyrrolidin-1-yl)-3-fluorophenyl)-5-fluoro-6-(1H-tetrazol-5-yl)benzofuran-3-carboxamide] returned an IC50 of at most 100 nM.

Take `O=C(Nc1ccc(OC(CF)CF)c(F)c1)c1coc2cc(-c3nnn[nH]3)c(F)cc12` [Compound 1-35, N-(4-((1,3-difluoropropan-2-yl)oxy)-3-fluorophenyl)-5-fluoro-6-(1H-tetrazol-5-yl)benzofuran-3-carboxamide]: the IC50 was in the range of 100 to 1000 nM.

In turn, `O=C(Nc1ccc(OCc2ccc(F)cc2Cl)cc1)c1coc2cc(Oc3nnn[nH]3)c(F)cc12` [Compound 1-39, 6-((1H-tetrazol-5-yl)oxy)-N-(4-((2-chloro-4-fluorobenzyl)oxy)phenyl)-5-fluorobenzofuran-3-carboxamide] returned an IC50 of 100 to 1000 nM.

`O=C(Nc1ccc(Oc2ccc(F)cc2Cl)cc1)c1coc2cc(-c3nnn[nH]3)c(F)cc12` [Compound 1-40, N-(4-(2-chloro-4-fluorophenoxy)phenyl)-5-fluoro-6-(1H-tetrazol-5-yl)benzofuran-3-carboxamide]: the IC50 lay in the range of 100 to 1000 nM.

Compound `O=C(Nc1ccc(OCc2ccc(Cl)cc2F)cc1)c1coc2cc(-c3nnn[nH]3)c(F)cc12` [Compound 1-41, N-(4-((4-chloro-2-fluorobenzyl)oxy)phenyl)-5-fluoro-6-(1H-tetrazol-5-yl)benzofuran-3-carboxamide] came in with an IC50 of at most 100 nM.

Consider `O=C(Nc1ccc(N2CC3C(C2)C3(F)F)c(F)c1)c1coc2cc(-c3nnn[nH]3)c(F)cc12` (centres unmarked) [Compound 1-42, N-(4-(6,6-difluoro-3-azabicyclo[3.1.0]hexan-3-yl)-3-fluorophenyl)-5-fluoro-6-(1H-tetrazol-5-yl)benzofuran-3-carboxamide], for which the IC50 was in the range of 100 to 1000 nM.

Take `O=C(Nc1ccc(OCc2ccc(F)c(Cl)c2)cc1)c1coc2cc(-c3nnn[nH]3)c(F)cc12` [Compound 1-43, N-(4-((3-chloro-4-fluorobenzyl)oxy)phenyl)-5-fluoro-6-(1H-tetrazol-5-yl)benzofuran-3-carboxamide]: the IC50 is at most 100 nM.

Turning to `O=C(Nc1ccc(OCc2cccc(F)c2Cl)cc1)c1coc2cc(-c3nnn[nH]3)c(F)cc12` [Compound 1-44, N-(4-((2-chloro-3-fluorobenzyl)oxy)phenyl)-5-fluoro-6-(1H-tetrazol-5-yl)benzofuran-3-carboxamide], the IC50 was 100 to 1000 nM.

For `O=C(Nc1ccc(OCc2cc(F)cc(Cl)c2)cc1)c1coc2cc(-c3nnn[nH]3)c(F)cc12` [Compound 1-45, N-(4-((3-chloro-5-fluorobenzyl)oxy)phenyl)-5-fluoro-6-(1H-tetrazol-5-yl)benzofuran-3-carboxamide], the IC50 lay within 100 to 1000 nM.

In turn, `N#Cc1ccc(COc2ccc(NC(=O)c3coc4cc(-c5nnn[nH]5)c(F)cc34)cc2)c(Cl)c1` [Compound 1-46, N-(4-((2-chloro-4-cyanobenzyl)oxy)phenyl)-5-fluoro-6-(1H-tetrazol-5-yl)benzofuran-3-carboxamide] came in with an IC50 of 100 to 1000 nM.

As to `O=C(Nc1ccc(OCc2ccc(F)cn2)cc1)c1coc2cc(-c3nnn[nH]3)c(F)cc12` [Compound 1-47, 5-fluoro-N-(4-((5-fluoropyridin-2-yl)methoxy)phenyl)-6-(1H-tetrazol-5-yl)benzofuran-3-carboxamide], the IC50 lay in the range of 100 to 1000 nM.

In turn, `N#Cc1cc(F)ccc1COc1ccc(NC(=O)c2coc3cc(-c4nnn[nH]4)c(F)cc23)cc1` [Compound 1-48, N-(4-((2-cyano-4-fluorobenzyl)oxy)phenyl)-5-fluoro-6-(1H-tetrazol-5-yl)benzofuran-3-carboxamide] registered an IC50 of 100 to 1000 nM.

Consider `O=C(Nc1ccc(OCc2ccc(Cl)c(F)c2)cc1)c1coc2cc(-c3nnn[nH]3)c(F)cc12` [Compound 1-49, N-(4-((4-chloro-3-fluorobenzyl)oxy)phenyl)-5-fluoro-6-(1H-tetrazol-5-yl)benzofuran-3-carboxamide], for which the IC50 was at most 100 nM.

Take `O=C(Nc1ccc(OCc2cc(F)c(F)cc2Cl)cc1)c1coc2cc(-c3nnn[nH]3)c(F)cc12` [Compound 1-50, N-(4-((2-chloro-4,5-difluorobenzyl)oxy)phenyl)-5-fluoro-6-(1H-tetrazol-5-yl)benzofuran-3-carboxamide]: the IC50 fell in the range of 100 to 1000 nM.

The compound `O=C(Nc1ccc(OCc2ccc(Cl)cn2)cc1)c1coc2cc(-c3nnn[nH]3)c(F)cc12` [Compound 1-51, N-(4-((5-chloropyridin-2-yl)methoxy)phenyl)-5-fluoro-6-(1H-tetrazol-5-yl)benzofuran-3-carboxamide] gave an IC50 of at most 100 nM.

Turning to `N#Cc1cc(Cl)ccc1COc1ccc(NC(=O)c2coc3cc(-c4nnn[nH]4)c(F)cc23)cc1` [Compound 1-52, N-(4-((4-chloro-2-cyanobenzyl)oxy)phenyl)-5-fluoro-6-(1H-tetrazol-5-yl)benzofuran-3-carboxamide], the IC50 is 100 to 1000 nM.

Regarding `O=C(Nc1ccc(OCc2cc(F)c(Cl)c(F)c2)cc1)c1coc2cc(-c3nnn[nH]3)c(F)cc12` [Compound 1-53, N-(4-((4-chloro-3,5-difluorobenzyl)oxy)phenyl)-5-fluoro-6-(1H-tetrazol-5-yl)benzofuran-3-carboxamide], the IC50 is at most 100 nM.

In the case of `O=C(Nc1ccc(OCc2c(F)cc(Cl)cc2F)cc1)c1coc2cc(-c3nnn[nH]3)c(F)cc12` [Compound 1-54, N-(4-((4-chloro-2,6-difluorobenzyl)oxy)phenyl)-5-fluoro-6-(1H-tetrazol-5-yl)benzofuran-3-carboxamide], the IC50 lay in the range of 100 to 1000 nM.

As for `O=C(Nc1ccc(OCc2cc(F)c(Cl)cc2F)cc1)c1coc2cc(-c3nnn[nH]3)c(F)cc12` [Compound 1-55, N-(4-((4-chloro-2,5-difluorobenzyl)oxy)phenyl)-5-fluoro-6-(1H-tetrazol-5-yl)benzofuran-3-carboxamide], the IC50 was in the range of 100 to 1000 nM.

Compound `O=C(Nc1ccc(OCc2cc(Cl)cs2)cc1)c1coc2cc(-c3nnn[nH]3)c(F)cc12` [Compound 1-56, N-(4-((4-chlorothiophen-2-yl)methoxy)phenyl)-5-fluoro-6-(1H-tetrazol-5-yl)benzofuran-3-carboxamide] returned an IC50 of at most 100 nM.

As for `O=C(Nc1ccc(OCc2cc(Cl)c(Cl)s2)cc1)c1coc2cc(-c3nnn[nH]3)c(F)cc12` [Compound 1-57, N-(4-((4,5-dichlorothiophen-2-yl)methoxy)phenyl)-5-fluoro-6-(1H-tetrazol-5-yl)benzofuran-3-carboxamide], the IC50 was in the range of 100 to 1000 nM.

Compound `O=C(Nc1ccc(C2CCCC2)c(F)c1)c1csc2cc(-c3nnn[nH]3)ccc12` [Compound 1-58, N-(4-cyclopentyl-3-fluorophenyl)-6-(1H-tetrazol-5-yl)benzo[b]thiophene-3-carboxamide] registered an IC50 of at most 100 nM.
